Source: US20160045505A1, “COMPOUNDS AND COMPOSITIONS FOR THE TREATMENT OF PARASITIC DISEASES” (NOVARTIS AG, priority 2013, published 2016)
Like-named read-outs stand apart in the source and are kept apart here.

Legend:
[1] = system: Leishmania donovani axenic amastigote parasites; experiment: Leishmania donovani axenic amastigote proliferation assay (Cell TiterGlo luminescence, 2 day incubation); type: cell-based; details: Leishmania donovani, axenic amastigotes, inhibition of proliferation; read-out: L. donovani amastigotes EC50
[2] = system: L. donovani HU3 strain in mouse peritoneal macrophages; experiment: Assay for proliferation of Leishmania parasites in infected mouse peritoneal macrophages (SybrGreen staining, high-content imaging, 5 days); type: cell-based, Leishmania donovani; details: Leishmania donovani, Peritoneal macrophage, L. donovani in mouse peritoneal macrophages, inhibition of proliferation; read-out: L. donovani Macrophage EC50
[3] = system: Trypanosoma brucei Lister 427 strain, bloodstream form; experiment: Assay for proliferation of kinetoplastid parasite Trypanosoma brucei (Cell Titer Glo, 48 hours); type: cell-based; details: Trypanosoma brucei, read-out: T. brucei EC50
Method in brief: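 Bloodstream-form T. brucei Lister 427 in HMI-9 medium was exposed to compound (DMSO vehicle) for 48 hours at 37° C, 5% CO2. Parasite growth was read as ATP by CellTiter-Glo luminescence, with EC50 calculated from percent inhibition.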

[4] = system: Trypanosoma cruzi amastigotes (Tulahuen strain expressing Lac-Z) cultured in 3T3 fibroblast cells; experiment: microbe, parasite or virus in culture; type: cell-based; details: Trypanosoma cruzi, TULAHUEN, Fibroblast, T. cruzi amastigotes in 3T3 fibroblast cells, inhibition of proliferation; read-out: T cruzi EC50
[5] = T. brucei Lister 427 bloodstream form, inhibition of proliferation

Cc1ncc(C(=O)Nc2ccc(F)c(-c3cn4cc(-c5ccccn5)cnc4n3)c2)o1 [Compound 198]
EC50 [1]: 7 nM | EC50 [2]: 16 nM | EC50 [3, 5]: 18 nM | EC50 [4]: 16 nM

Cc1nc(C)c(C(=O)Nc2ccc(F)c(-c3cn4cc(F)cnc4n3)c2)o1 [Compound 199]
EC50 [1]: 878 nM | EC50 [2]: 6440 nM | EC50 [3, 5]: 1120 nM | EC50 [4]: 1060 nM

Cc1nc(C)c(C(=O)Nc2ccc(F)c(-c3cn4cc(C(F)(F)F)cnc4n3)c2)o1 [Compound 200]
EC50 [1]: 219 nM | EC50 [2]: 631 nM | EC50 [3, 5]: 164 nM | EC50 [4]: 147 nM

Cc1ncc(C(=O)Nc2ccc(F)c(-c3cn4cc(C(F)(F)F)cnc4n3)c2)o1 [Compound 201]
EC50 [1]: 58 nM | EC50 [2]: 208 nM | EC50 [3, 5]: 460 nM | EC50 [4]: 126 nM

Cc1ncc(C(=O)Nc2cccc(-c3cn4cc(NC(=O)OC(C)C)cnc4n3)c2)o1 [Compound 202]
EC50 [1]: 229 nM | EC50 [2]: 2720 nM | EC50 [3, 5]: 249 nM | EC50 [4]: > 20000 nM

CC(C)OC(=O)Nc1cnc2nc(-c3cccc(NC(=O)c4cnco4)c3)cn2c1 [Compound 203]
EC50 [1]: 970 nM | EC50 [2]: 13800 nM | EC50 [3, 5]: 1160 nM | EC50 [4]: 10600 nM

Cc1ncoc1C(=O)Nc1cccc(-c2cn3cc(NC(=O)OC(C)C)cnc3n2)c1 [Compound 204]
EC50 [1]: 941 nM | EC50 [2]: 19200 nM | EC50 [3, 5]: 676 nM | EC50 [4]: 4100 nM

Cc1nc(C)c(C(=O)Nc2ccc(F)c(-c3cn4cc(Cl)cnc4n3)c2)o1 [Compound 205]
EC50 [1]: 300 nM | EC50 [2]: 1240 nM | EC50 [3, 5]: 352 nM | EC50 [4]: 413 nM

CC(=O)Nc1cnc2nc(-c3cc(NC(=O)c4cnc(C)o4)ccc3F)cn2c1 [Compound 206]
EC50 [1]: 3190 nM | EC50 [2]: > 50000 nM | EC50 [3, 5]: > 50000 nM | EC50 [4]: > 20000 nM

Cc1nc(C)c(C(=O)Nc2ccc(F)c(-c3cn4cc(C(F)F)cnc4n3)c2)o1 [Compound 208]
EC50 [1]: 134 nM | EC50 [2]: 445 nM | EC50 [3, 5]: 108 nM | EC50 [4]: 100 nM

Cc1ncc(C(=O)Nc2ccc(F)c(-c3cn4cc(C(F)F)cnc4n3)c2)o1 [Compound 209]
EC50 [1]: 87 nM | EC50 [2]: 317 nM | EC50 [3, 5]: 169 nM | EC50 [4]: 130 nM

Cc1nc(C)c(C(=O)Nc2ccc(F)c(-c3cn4cc(C5CCC5)cnc4n3)c2)o1 [Compound 210]
EC50 [1]: 47 nM | EC50 [2]: 85 nM | EC50 [3, 5]: 34 nM | EC50 [4]: 31 nM

Cc1ncc(C(=O)Nc2ccc(F)c(-c3cn4cc(C5CCC5)cnc4n3)c2)o1 [Compound 211]
EC50 [1]: 21 nM | EC50 [2]: 55 nM | EC50 [3, 5]: 29 nM | EC50 [4]: 16 nM

CNc1cnc2nc(-c3cc(NC(=O)c4oc(C)nc4C)ccc3F)cn2c1 [Compound 212]
EC50 [1]: 1120 nM | EC50 [2]: 4150 nM | EC50 [3, 5]: 1010 nM | EC50 [4]: 1300 nM

CON(C)C(=O)Nc1ccc(Cl)c(-c2cn3cc(NC(=O)OC(C)C)cnc3n2)c1 [Compound 214]
EC50 [1]: 90 nM | EC50 [2]: 785 nM | EC50 [3, 5]: 40 nM | EC50 [4]: 154 nM

CC(C)OC(=O)Nc1cnc2nc(-c3cc(NC(=O)N4CCOCC4)ccc3Cl)cn2c1 [Compound 216]
EC50 [1]: 4430 nM | EC50 [2]: > 50000 nM | EC50 [3, 5]: 3130 nM | EC50 [4]: 11500 nM

CC(C)OC(=O)Nc1cnc2nc(-c3cc(NC(=O)N4CCNC4=O)ccc3Cl)cn2c1 [Compound 217]
EC50 [1]: > 25000 nM | EC50 [2]: > 50000 nM | EC50 [3, 5]: > 50000 nM | EC50 [4]: 7060 nM

CC(C)OC(=O)Nc1cnc2nc(-c3cc(NC(=O)N(C)CC(F)(F)F)ccc3F)cn2c1 [Compound 222]
EC50 [1]: 109 nM | EC50 [2]: 424 nM | EC50 [3, 5]: 67 nM | EC50 [4]: 419 nM

Cc1nc(C)c(C(=O)Nc2ccc(F)c(-c3cn4cc(NC(=O)N5CCNC5=O)cnc4n3)c2)o1 [Compound 224]
EC50 [1]: 1410 nM | EC50 [2]: > 50000 nM | EC50 [3, 5]: 757 nM | EC50 [4]: > 20000 nM

CN(C)C(=O)Nc1ccc(F)c(-c2cn3cc(Cl)cnc3n2)c1 [Compound 225]
EC50 [1]: 1610 nM | EC50 [2]: 8250 nM | EC50 [3, 5]: 468 nM | EC50 [4]: 1200 nM

CC(C)OC(=O)Nc1cnc2nc(-c3cc(NC(=O)N4CC[C@H](F)C4)ccc3F)cn2c1 [Compound 227]
EC50 [1]: 3740 nM | EC50 [2]: > 50000 nM | EC50 [3, 5]: 4370 nM | EC50 [4]: 4910 nM

CC(C)OC(=O)Nc1cnc2nc(-c3cc(NC(=O)N(C(C)C)C(C)C)ccc3F)cn2c1 [Compound 228]
EC50 [1]: > 25000 nM | EC50 [2]: 19500 nM | EC50 [3, 5]: 34500 nM | EC50 [4]: 9990 nM

CC(C)OC(=O)Nc1cnc2nc(-c3cc(NC(=O)N4CC[C@@H](F)C4)ccc3F)cn2c1 [Compound 229]
EC50 [1]: 884 nM | EC50 [2]: 2820 nM | EC50 [3, 5]: 776 nM | EC50 [4]: 11000 nM

CN(C)C(=O)Nc1ccc(F)c(-c2cn3cc(F)cnc3n2)c1 [Compound 230]
EC50 [1]: 2730 nM | EC50 [2]: 11700 nM | EC50 [3, 5]: 323 nM | EC50 [4]: 1310 nM

O=C(Nc1ccc(F)c(-c2cn3cc(F)cnc3n2)c1)N1CC(F)C1 [Compound 231]
EC50 [1]: 307 nM | EC50 [2]: 1720 nM | EC50 [3, 5]: 313 nM | EC50 [4]: 420 nM

O=C(Nc1ccc(F)c(-c2cn3cc(F)cnc3n2)c1)N1CCC1 [Compound 232]
EC50 [1]: 381 nM | EC50 [2]: 1650 nM | EC50 [3, 5]: 203 nM | EC50 [4]: 384 nM

O=C(Nc1ccc(F)c(-c2cn3cc(F)cnc3n2)c1)N1CC(F)(F)C1 [Compound 233]
EC50 [1]: 290 nM | EC50 [2]: 2050 nM | EC50 [3, 5]: 326 nM | EC50 [4]: 754 nM

O=C(Nc1ccc(F)c(-c2cn3cc(F)cnc3n2)c1)N1CC[C@@H](F)C1 [Compound 234]
EC50 [1]: 219 nM | EC50 [2]: 741 nM | EC50 [3, 5]: 151 nM | EC50 [4]: 155 nM

O=C(Nc1ccc(F)c(-c2cn3cc(Cl)cnc3n2)c1)N1CC(F)(F)C1 [Compound 235]
EC50 [1]: 215 nM | EC50 [2]: 821 nM | EC50 [3, 5]: 165 nM | EC50 [4]: 433 nM

O=C(Nc1ccc(F)c(-c2cn3cc(Cl)cnc3n2)c1)N1CC[C@@H](F)C1 [Compound 236]
EC50 [1]: 95 nM | EC50 [2]: 434 nM | EC50 [3, 5]: 36 nM | EC50 [4]: 98 nM

O=C(Nc1ccc(F)c(-c2cn3cc(Cl)cnc3n2)c1)N1CCC1 [Compound 237]
EC50 [1]: 217 nM | EC50 [2]: 877 nM | EC50 [3, 5]: 122 nM | EC50 [4]: 229 nM

O=C(Nc1ccc(F)c(-c2cn3cc(Cl)cnc3n2)c1)N1CC(F)C1 [Compound 238]
EC50 [1]: 208 nM | EC50 [2]: 788 nM | EC50 [3, 5]: 117 nM | EC50 [4]: 233 nM

CN(C)C(=O)Nc1ccc(F)c(-c2cn3cc(C(F)F)cnc3n2)c1 [Compound 239]
EC50 [1]: 515 nM | EC50 [2]: 2200 nM | EC50 [3, 5]: 350 nM | EC50 [4]: 372 nM

CC(C)OC(=O)Nc1cnc2nc(-c3cc(NC(=O)C4CC4)ccc3F)cn2c1 [Compound 240]
EC50 [1]: 1180 nM | EC50 [2]: > 50000 nM | EC50 [3, 5]: 439 nM | EC50 [4]: 602 nM

CC(C)OC(=O)Nc1cnc2nc(-c3cc(NC(=O)c4nccs4)ccc3F)cn2c1 [Compound 242]
EC50 [1]: 687 nM | EC50 [2]: 2200 nM | EC50 [3, 5]: 477 nM | EC50 [4]: 198 nM

CC(C)OC(=O)Nc1cnc2nc(-c3cc(NC(=O)c4nccs4)ccc3Cl)cn2c1 [Compound 243]
EC50 [1]: 780 nM | EC50 [2]: 2610 nM | EC50 [3, 5]: 369 nM | EC50 [4]: 150 nM

CC(C)OC(=O)Nc1cnc2nc(-c3cc(NC(=O)c4ccco4)ccc3Cl)cn2c1 [Compound 244]
EC50 [1]: 152 nM | EC50 [2]: 345 nM | EC50 [3, 5]: 65 nM | EC50 [4]: 55 nM

CC(C)OC(=O)Nc1cnc2nc(-c3cc(NC(=O)C4CC4)ccc3Cl)cn2c1 [Compound 245]
EC50 [1]: 1690 nM | EC50 [2]: 2030 nM | EC50 [3, 5]: 1400 nM | EC50 [4]: 1130 nM

CC(C)OC(=O)Nc1cnc2nc(-c3cc(NC(=O)N(C)C)ccc3Cl)cn2c1 [Compound 246]
EC50 [1]: 562 nM | EC50 [2]: 1190 nM | EC50 [3, 5]: 85 nM | EC50 [4]: 622 nM

CCC(=O)Nc1ccc(Cl)c(-c2cn3cc(NC(=O)OC(C)C)cnc3n2)c1 [Compound 247]
EC50 [1]: 740 nM | EC50 [2]: 3250 nM | EC50 [3, 5]: 367 nM | EC50 [4]: 575 nM

Cc1nc(C)c(C(=O)Nc2ccc(F)c(-c3cn4cc(NC(=O)C5CC5)cnc4n3)c2)o1 [Compound 248]
EC50 [1]: 191 nM | EC50 [2]: 411 nM | EC50 [3, 5]: 169 nM | EC50 [4]: > 20000 nM

CC(C)CN(C)C(=O)Nc1ccc(Cl)c(-c2cn3cc(NC(=O)OC(C)C)cnc3n2)c1 [Compound 249]
EC50 [1]: 3370 nM | EC50 [2]: 5550 nM | EC50 [3]: 4070 nM | EC50 [4]: 1340 nM

CCN(C)C(=O)Nc1ccc(Cl)c(-c2cn3cc(NC(=O)OC(C)C)cnc3n2)c1 [Compound 250]
EC50 [1]: 498 nM | EC50 [2]: 839 nM | EC50 [3, 5]: 112 nM | EC50 [4]: 631 nM

Cc1nc(C)c(C(=O)Nc2ccc(F)c(-c3cn4cc(-c5cnccn5)cnc4n3)c2)o1 [Compound 251]
EC50 [1]: 35 nM | EC50 [2]: 85 nM | EC50 [3, 5]: 45 nM | EC50 [4]: 61 nM

CC(C)OC(=O)Nc1cnc2nc(-c3cc(NC(N)=O)ccc3Cl)cn2c1 [Compound 252]
EC50 [1]: > 25000 nM | EC50 [2]: > 50000 nM | EC50 [3, 5]: 33000 nM | EC50 [4]: > 20000 nM

CC(C)OC(=O)Nc1cnc2nc(-c3cc(NC(=O)N(C)CC(F)(F)F)ccc3Cl)cn2c1 [Compound 255]
EC50 [1]: 364 nM | EC50 [2]: 502 nM | EC50 [3, 5]: 122 nM | EC50 [4]: 329 nM

CC(C)OC(=O)Nc1cnc2nc(-c3cc(NC(=O)N(C)c4nccn4C)ccc3Cl)cn2c1 [Compound 256]
EC50 [1]: > 25000 nM | EC50 [2]: > 50000 nM | EC50 [3, 5]: 31600 nM | EC50 [4]: > 20000 nM
